ChEMBL document CHEMBL3862012, “Methylene versus carbonyl bridge in the structure of new tubulin polymerization inhibitors with tricyclic A-rings” (Bioorg Med Chem, 2016)

Organism: Ovis aries
Experiment: Inhibition of sheep brain tubulin polymerization at 100 uM by DAPI staining-based fluorimetric method relative to control
Conditions: not given

Row | SMILES | inhibition
1 | COc1ccc(CN2c3ccccc3Oc3ccccc32)cc1F | 1%

Tested on: not listed separately
Experiment: Cytotoxicity against human CCRF-CEM cells assessed as growth inhibition at 10 uM after 48 hrs by SRB assay relative to control
Format: functional
Conditions: read-out: GI

Row | SMILES | inhibition of growth at 10 µM
2 | COc1ccc(CN2c3ccccc3Oc3ccccc32)cc1F | 33%

Tested on: not listed separately
Experiment: Cytotoxicity against human HL-60(TB) cells assessed as growth inhibition at 10 uM after 48 hrs by SRB assay relative to control
Format: functional
Conditions: HL-60, 48 h, read-out: GI

Row | SMILES | inhibition of growth at 10 µM
3 | COc1ccc(CN2c3ccccc3Oc3ccccc32)cc1F | 46%

Tested on: not listed separately
Experiment: Cytotoxicity against human MOLT4 cells assessed as growth inhibition at 10 uM after 48 hrs by SRB assay relative to control
Format: functional
Conditions: MOLT-4, 48 h, read-out: GI

Row | SMILES | inhibition of growth at 10 µM
4 | COc1ccc(CN2c3ccccc3Oc3ccccc32)cc1F | 58%

Tested on: not listed separately
Experiment: Cytotoxicity against human SR cells assessed as growth inhibition at 10 uM after 48 hrs by SRB assay relative to control
Format: functional
Conditions: read-out: GI

Row | SMILES | inhibition of growth at 10 µM
5 | COc1ccc(CN2c3ccccc3Oc3ccccc32)cc1F | 73%

Tested on: not listed separately
Experiment: Cytotoxicity against human A549 cells assessed as growth inhibition at 10 uM after 48 hrs by SRB assay relative to control
Format: functional
Conditions: A549, 48 h, read-out: GI

Row | SMILES | inhibition of growth at 10 µM
6 | COc1ccc(CN2c3ccccc3Oc3ccccc32)cc1F | 56%

Tested on: not listed separately
Experiment: Cytotoxicity against human EKVX cells assessed as growth inhibition at 10 uM after 48 hrs by SRB assay relative to control
Format: functional
Conditions: read-out: GI

Row | SMILES | inhibition of growth at 10 µM
7 | COc1ccc(CN2c3ccccc3Oc3ccccc32)cc1F | 39%

Tested on: not listed separately
Experiment: Cytotoxicity against human HOP62 cells assessed as growth inhibition at 10 uM after 48 hrs by SRB assay relative to control
Format: functional
Conditions: HOP-62, 48 h, read-out: GI

Row | SMILES | inhibition of growth at 10 µM
8 | COc1ccc(CN2c3ccccc3Oc3ccccc32)cc1F | 48%

Tested on: not listed separately
Experiment: Cytotoxicity against human HOP92 cells assessed as growth inhibition at 10 uM after 48 hrs by SRB assay relative to control
Format: functional
Conditions: HOP-92, 48 h, read-out: GI

Row | SMILES | inhibition of growth at 10 µM
9 | COc1ccc(CN2c3ccccc3Oc3ccccc32)cc1F | 33%

Tested on: not listed separately
Experiment: Cytotoxicity against human NCI-H23 cells assessed as growth inhibition at 10 uM after 48 hrs by SRB assay relative to control
Format: functional
Conditions: NCI-H23, 48 h, read-out: GI

Row | SMILES | inhibition of growth at 10 µM
10 | COc1ccc(CN2c3ccccc3Oc3ccccc32)cc1F | 28%

Tested on: not listed separately
Experiment: Cytotoxicity against human NCI-H322M cells assessed as growth inhibition at 10 uM after 48 hrs by SRB assay relative to control
Format: functional
Conditions: read-out: GI

Row | SMILES | inhibition of growth at 10 µM
11 | COc1ccc(CN2c3ccccc3Oc3ccccc32)cc1F | 8%

Tested on: not listed separately
Experiment: Cytotoxicity against human NCI-H460 cells assessed as growth inhibition at 10 uM after 48 hrs by SRB assay relative to control
Format: functional
Conditions: NCI-H460, 48 h, read-out: GI

Row | SMILES | inhibition of growth at 10 µM
12 | COc1ccc(CN2c3ccccc3Oc3ccccc32)cc1F | 52%

Tested on: not listed separately
Experiment: Cytotoxicity against human HCT116 cells assessed as growth inhibition at 10 uM after 48 hrs by SRB assay relative to control
Format: functional
Conditions: HCT-116, 48 h, read-out: GI

Row | SMILES | inhibition of growth at 10 µM
13 | COc1ccc(CN2c3ccccc3Oc3ccccc32)cc1F | 69%

Tested on: not listed separately
Experiment: Cytotoxicity against human KM12 cells assessed as growth inhibition at 10 uM after 48 hrs by SRB assay relative to control
Format: functional
Conditions: KM12, 48 h, read-out: GI

Row | SMILES | inhibition of growth at 10 µM
14 | COc1ccc(CN2c3ccccc3Oc3ccccc32)cc1F | 59%

Tested on: not listed separately
Experiment: Cytotoxicity against human SF295 cells assessed as growth inhibition at 10 uM after 48 hrs by SRB assay relative to control
Format: functional
Conditions: SF-295, 48 h, read-out: GI

Row | SMILES | inhibition of growth at 10 µM
15 | COc1ccc(CN2c3ccccc3Oc3ccccc32)cc1F | 67%

Tested on: not listed separately
Experiment: Cytotoxicity against human SF539 cells assessed as growth inhibition at 10 uM after 48 hrs by SRB assay relative to control
Format: functional
Conditions: SF-539, 48 h, read-out: GI

Row | SMILES | inhibition of growth at 10 µM
16 | COc1ccc(CN2c3ccccc3Oc3ccccc32)cc1F | 35%

Tested on: not listed separately
Experiment: Cytotoxicity against human SNB75 cells assessed as growth inhibition at 10 uM after 48 hrs by SRB assay relative to control
Format: functional
Conditions: SNB-75, 48 h, read-out: GI

Row | SMILES | inhibition of growth at 10 µM
17 | COc1ccc(CN2c3ccccc3Oc3ccccc32)cc1F | 52%

Tested on: not listed separately
Experiment: Cytotoxicity against human U251 cells assessed as growth inhibition at 10 uM after 48 hrs by SRB assay relative to control
Format: functional
Conditions: U-251, 48 h, read-out: GI

Row | SMILES | inhibition of growth at 10 µM
18 | COc1ccc(CN2c3ccccc3Oc3ccccc32)cc1F | 60%

Tested on: not listed separately
Experiment: Cytotoxicity against human MALME-3M cells assessed as growth inhibition at 10 uM after 48 hrs by SRB assay relative to control
Format: functional
Conditions: read-out: GI

Row | SMILES | inhibition of growth at 10 µM
19 | COc1ccc(CN2c3ccccc3Oc3ccccc32)cc1F | 41%

Tested on: not listed separately
Experiment: Cytotoxicity against human M14 cells assessed as growth inhibition at 10 uM after 48 hrs by SRB assay relative to control
Format: functional
Conditions: M14, 48 h, read-out: GI

Row | SMILES | inhibition of growth at 10 µM
20 | COc1ccc(CN2c3ccccc3Oc3ccccc32)cc1F | 66%

Tested on: not listed separately
Experiment: Cytotoxicity against human MDA-MB-435 cells assessed as growth inhibition at 10 uM after 48 hrs by SRB assay relative to control
Format: functional
Conditions: MDA-MB-435, 48 h, read-out: GI

Row | SMILES | inhibition of growth at 10 µM
21 | COc1ccc(CN2c3ccccc3Oc3ccccc32)cc1F | 100%

Tested on: not listed separately
Experiment: Cytotoxicity against human OVCAR3 cells assessed as growth inhibition at 10 uM after 48 hrs by SRB assay relative to control
Format: functional
Conditions: OVCAR-3, 48 h, read-out: GI

Row | SMILES | inhibition of growth at 10 µM
22 | COc1ccc(CN2c3ccccc3Oc3ccccc32)cc1F | 57%

Tested on: not listed separately
Experiment: Cytotoxicity against human NCI-ADR-RES cells assessed as growth inhibition at 10 uM after 48 hrs by SRB assay relative to control
Format: functional
Conditions: read-out: GI

Row | SMILES | inhibition of growth at 10 µM
23 | COc1ccc(CN2c3ccccc3Oc3ccccc32)cc1F | 59%

Tested on: not listed separately
Experiment: Cytotoxicity against human SKOV3 cells assessed as growth inhibition at 10 uM after 48 hrs by SRB assay relative to control
Format: functional
Conditions: SK-OV-3, 48 h, read-out: GI

Row | SMILES | inhibition of growth at 10 µM
24 | COc1ccc(CN2c3ccccc3Oc3ccccc32)cc1F | 53%

Tested on: not listed separately
Experiment: Cytotoxicity against human 786-0 cells assessed as growth inhibition at 10 uM after 48 hrs by SRB assay relative to control
Format: functional
Conditions: 786-0, 48 h, read-out: GI

Row | SMILES | inhibition of growth at 10 µM
25 | COc1ccc(CN2c3ccccc3Oc3ccccc32)cc1F | 21%

Tested on: not listed separately
Experiment: Cytotoxicity against human A498 cells assessed as growth inhibition at 10 uM after 48 hrs by SRB assay relative to control
Format: functional
Conditions: A498, 48 h, read-out: GI

Row | SMILES | inhibition of growth at 10 µM
26 | COc1ccc(CN2c3ccccc3Oc3ccccc32)cc1F | 46%

Tested on: not listed separately
Experiment: Cytotoxicity against human Caki1 cells assessed as growth inhibition at 10 uM after 48 hrs by SRB assay relative to control
Format: functional
Conditions: CAKI-1, 48 h, read-out: GI

Row | SMILES | inhibition of growth at 10 µM
27 | COc1ccc(CN2c3ccccc3Oc3ccccc32)cc1F | 41%

Tested on: not listed separately
Experiment: Cytotoxicity against human RXF393 cells assessed as growth inhibition at 10 uM after 48 hrs by SRB assay relative to control
Format: functional
Conditions: RXF 393, 48 h, read-out: GI

Row | SMILES | inhibition of growth at 10 µM
28 | COc1ccc(CN2c3ccccc3Oc3ccccc32)cc1F | 16%

Tested on: not listed separately
Experiment: Cytotoxicity against human TK10 cells assessed as growth inhibition at 10 uM after 48 hrs by SRB assay relative to control
Format: functional
Conditions: TK-10, 48 h, read-out: GI

Row | SMILES | inhibition of growth at 10 µM
29 | COc1ccc(CN2c3ccccc3Oc3ccccc32)cc1F | 26%

Tested on: not listed separately
Experiment: Cytotoxicity against human UO31 cells assessed as growth inhibition at 10 uM after 48 hrs by SRB assay relative to control
Format: functional
Conditions: UO-31, 48 h, read-out: GI

Row | SMILES | inhibition of growth at 10 µM
30 | COc1ccc(CN2c3ccccc3Oc3ccccc32)cc1F | 47%

Tested on: not listed separately
Experiment: Cytotoxicity against human PC3 cells assessed as growth inhibition at 10 uM after 48 hrs by SRB assay relative to control
Format: functional
Conditions: PC-3, 48 h, read-out: GI

Row | SMILES | inhibition of growth at 10 µM
31 | COc1ccc(CN2c3ccccc3Oc3ccccc32)cc1F | 35%

Tested on: not listed separately
Experiment: Cytotoxicity against human DU145 cells assessed as growth inhibition at 10 uM after 48 hrs by SRB assay relative to control
Format: functional
Conditions: DU-145, 48 h, read-out: GI

Row | SMILES | inhibition of growth at 10 µM
32 | COc1ccc(CN2c3ccccc3Oc3ccccc32)cc1F | 4%

Tested on: not listed separately
Experiment: Cytotoxicity against human MCF7 cells assessed as growth inhibition at 10 uM after 48 hrs by SRB assay relative to control
Format: functional
Conditions: MCF7, 48 h, read-out: GI

Row | SMILES | inhibition of growth at 10 µM
33 | COc1ccc(CN2c3ccccc3Oc3ccccc32)cc1F | 57%

Tested on: not listed separately
Experiment: Cytotoxicity against human MDA-MB-231 cells assessed as growth inhibition at 10 uM after 48 hrs by SRB assay relative to control
Format: functional
Conditions: MDA-MB-231, 48 h, read-out: GI

Row | SMILES | inhibition of growth at 10 µM
34 | COc1ccc(CN2c3ccccc3Oc3ccccc32)cc1F | 47%

Tested on: not listed separately
Experiment: Cytotoxicity against human BT549 cells assessed as growth inhibition at 10 uM after 48 hrs by SRB assay relative to control
Format: functional
Conditions: BT-549, 48 h, read-out: GI

Row | SMILES | inhibition of growth at 10 µM
35 | COc1ccc(CN2c3ccccc3Oc3ccccc32)cc1F | 30%

Tested on: not listed separately
Experiment: Cytotoxicity against human T47D cells assessed as growth inhibition at 10 uM after 48 hrs by SRB assay relative to control
Format: functional
Conditions: read-out: GI

Row | SMILES | inhibition of growth at 10 µM
36 | COc1ccc(CN2c3ccccc3Oc3ccccc32)cc1F | 42%

Tested on: not listed separately
Experiment: Cytotoxicity against human MDA-MB-468 cells assessed as growth inhibition at 10 uM after 48 hrs by SRB assay relative to control
Format: functional
Conditions: MDA-MB-468, 48 h, read-out: GI

Row | SMILES | inhibition of growth at 10 µM
37 | COc1ccc(CN2c3ccccc3Oc3ccccc32)cc1F | 56%
